Results taken from patent US12575571B2, “1-amino-1-cyclopropanecarboxylic acid and methyl jasmonate mixtures and uses thereof” (Valent BioSciences LLC, priority 2022, dated 2026).

Experiments:
[1] = test system: unripened apples, Imperial Gala variety; assay: Apple coloration in Imperial Gala variety (percent red pixel area after foliar spray); format: in vivo; settings: 34 hours post spray; for Fold Change From control: vs 0.05% Regulaid control
Description: 10 sets of unripened apples, Imperial Gala variety, harvested three weeks before the normal harvest date, were each foliar sprayed with either 1) 0.05% Regulaid® as a control, 2) 50 ppm methyl jasmonate, 3) 300 ppm methyl jasmonate, 4) 50 ppm ACC, 5) 300 ppm ACC or 6) a mixture of 50 ppm methyl jasmonate and 50 ppm ACC or 7) a mixture of 300 ppm methyl jasmonate and 300 ppm ACC. 34 hours post spray application percent red pixel area (shaded) was measured. Percent red pixel area is an indication of the coloration of the apple fruit.
(§1) To determine if the mixture provided unexpected results, the observed combined efficacy (“OCE”) was divided by the expected combined efficacy (“ECE”) wherein the ECE is calculated by the Abbott method: ECE=A+B−(AB/100), wherein ECE is the expected combined efficacy and in which A and B are the fold change from control given by the single active ingredients. If the ratio between the OCE of the mixture and the ECE of the mixture is greater than 1, then greater than expected interactions are present in the mixture. (Gisi, Synergistic Interaction of Fungicides in Mixtures, The American Phytopathological Society, 86:11, 1273-1279,1996).

[2] = test system: unripened apples, Ultima Gala variety; assay: Apple coloration in Ultima Gala variety (percent red pixel area after foliar spray); format: in vivo; settings: 34 hours post spray; for Fold Change From control: vs 0.05% Regulaid control
Description: as §1
10 sets of unripened apples, Ultima Gala variety, harvested three weeks before the normal harvest date, were each foliar sprayed with either 1) 0.05% Regulaid® as a control, 2) 50 ppm methyl jasmonate, 3) 300 ppm methyl jasmonate, 4) 50 ppm ACC, 5) 300 ppm ACC or 6) a mixture of 50 ppm methyl jasmonate and 50 ppm ACC or 7) a mixture of 300 ppm methyl jasmonate and 300 ppm ACC. 34 hours post spray application percent red pixel area (shaded) was measured. Percent red pixel area is an indication of the coloration of the apple fruit.

[3] = 50 ppm (each active) foliar spray
[4] = 300 ppm (each active) foliar spray

With `CC/C=C\CC1C(=O)CCC1CC(=O)OC` (centres unmarked) [methyl jasmonate] the “Average % Red Pixel Area” value [1, 3] was 63.31%, the “Fold Change From control” value ([1]; 50 ppm (each active)) was 8.31 and the “Average % Red Pixel Area” value [1, 4] was 47.60%. The “Fold Change From control” value ([1]; 300 ppm (each active)) was 6.00, the “Average % Red Pixel Area” value [2, 3] was 36.64% and the “Fold Change From control” value ([2]; 50 ppm (each active)) was 2.30. For the same molecule, the “Average % Red Pixel Area” value [2, 4] was 46.37% and the “Fold Change From control” value ([2]; 300 ppm (each active)) was 3.17.
